Calls of active or inactive are those of the source. The calls are words filed in the database; no cut-off is given here.
Assays:
Escherichia coli = assay: Antibacterial activity against Escherichia coli harboring tolC deletion mutant assessed as reduction in microbial growth incubated for 16 hrs by serial dilution method; format: functional
[1] = target: UDP-N-acetylglucosamine 1-carboxyvinyltransferase (Escherichia coli K-12) (UniProt P0A749); assay: Inhibition of Escherichia coli K12 His-tagged MurA expressed in Escherichia coli BL21 cells at 50 uM using UNAG as substrate pre incubated for 15 mins followed by substrate addition and measured after 15 mins by microplate reader analysis relative to control; conditions: time 30.0 min
Staphylococcus aureus = assay: Antibacterial activity against Staphylococcus aureus Newman D2C NCTC 10833 assessed as reduction in microbial growth incubated for 16 hrs by serial dilution method; format: functional
Clostridioides difficile [2] = assay: Antibacterial activity against Clostridioides difficile NR-32895 assessed as reduction in microbial growth incubated for 48 hrs by broth microdilution method; format: functional
Clostridioides difficile [3] = assay: Antibacterial activity against Clostridioides difficile NR-32889 assessed as reduction in microbial growth incubated for 48 hrs by broth microdilution method; format: functional
Clostridioides difficile [4] = assay: Antibacterial activity against Clostridioides difficile NR-32903 assessed as reduction in microbial growth incubated for 48 hrs by broth microdilution method; format: functional
Clostridioides difficile [5] = assay: Antibacterial activity against Clostridioides difficile NR-32904 assessed as reduction in microbial growth incubated for 48 hrs by broth microdilution method; format: functional
Clostridioides difficile [6] = assay: Antibacterial activity against Clostridioides difficile NR-13427 assessed as reduction in microbial growth incubated for 48 hrs by broth microdilution method; format: functional
Clostridioides difficile [7] = assay: Antibacterial activity against Clostridioides difficile NR-13436 assessed as reduction in microbial growth incubated for 48 hrs by broth microdilution method; format: functional
Clostridioides difficile [8] = assay: Antibacterial activity against Clostridioides difficile NR-49277 assessed as reduction in microbial growth incubated for 48 hrs by broth microdilution method; format: functional
Clostridioides difficile [9] = assay: Antibacterial activity against Clostridioides difficile NR-49278 assessed as reduction in microbial growth incubated for 48 hrs by broth microdilution method; format: functional
Clostridioides difficile [10] = assay: Antibacterial activity against Clostridioides difficile NR-49279 assessed as reduction in microbial growth incubated for 48 hrs by broth microdilution method; format: functional
Clostridioides difficile [11] = assay: Antibacterial activity against Clostridioides difficile NR-49282 assessed as reduction in microbial growth incubated for 48 hrs by broth microdilution method; format: functional
Clostridioides difficile [12] = assay: Antibacterial activity against Clostridioides difficile NR-49283 assessed as reduction in microbial growth incubated for 48 hrs by broth microdilution method; format: functional
Clostridioides difficile [13] = assay: Antibacterial activity against Clostridioides difficile NR-49284 assessed as reduction in microbial growth incubated for 48 hrs by broth microdilution method; format: functional
Clostridioides difficile [14] = assay: Antibacterial activity against Clostridioides difficile NR-49285 assessed as reduction in microbial growth incubated for 48 hrs by broth microdilution method; format: functional
Clostridioides difficile [15] = assay: Antibacterial activity against Clostridioides difficile NR-49286 assessed as reduction in microbial growth incubated for 48 hrs by broth microdilution method; format: functional
Clostridioides difficile [16] = assay: Antibacterial activity against Clostridioides difficile NR-49287 assessed as reduction in microbial growth incubated for 48 hrs by broth microdilution method; format: functional
Clostridioides difficile [17] = assay: Antibacterial activity against Clostridioides difficile NR-49288 assessed as reduction in microbial growth incubated for 48 hrs by broth microdilution method; format: functional
Clostridioides difficile [18] = assay: Antibacterial activity against Clostridioides difficile NR-49291 assessed as reduction in microbial growth incubated for 48 hrs by broth microdilution method; format: functional
Clostridioides difficile [19] = assay: Antibacterial activity against Clostridioides difficile NR-49294 assessed as reduction in microbial growth incubated for 48 hrs by broth microdilution method; format: functional
Clostridioides difficile [20] = assay: Antibacterial activity against Clostridioides difficile ATCC 43255 assessed as reduction in microbial growth incubated for 48 hrs by broth microdilution method; format: functional
Clostridioides difficile [21] = assay: Antibacterial activity against Clostridioides difficile HM-88 assessed as reduction in microbial growth incubated for 48 hrs by broth microdilution method; format: functional
Clostridioides difficile [22] = assay: Bactericidal activity against Clostridioides difficile NR-32895 assessed as reduction in microbial growth by broth microdilution method; format: functional
Clostridioides difficile [23] = assay: Bactericidal activity against Clostridioides difficile NR-32904 assessed as reduction in microbial growth by broth microdilution method; format: functional
Clostridioides difficile [24] = assay: Bactericidal activity against Clostridioides difficile NR-49278 assessed as reduction in microbial growth by broth microdilution method; format: functional
Clostridioides difficile [25] = assay: Bactericidal activity against Clostridioides difficile NR-49284 assessed as reduction in microbial growth by broth microdilution method; format: functional
Clostridioides difficile [26] = assay: Bactericidal activity against Clostridioides difficile ATCC BAA1870 assessed as reduction in microbial growth by broth microdilution method; format: functional
Clostridioides difficile [27] = assay: Bactericidal activity against Clostridioides difficile ATCC 43255 assessed as reduction in microbial growth by broth microdilution method; format: functional
Bacteroides fragilis [28] = assay: Antibacterial activity against Bacteroides fragilis HM 20 assessed as reduction in microbial growth incubated for 48 hrs by broth microdilution method; format: functional
Bacteroides fragilis [29] = assay: Antibacterial activity against Bacteroides fragilis HM 709 assessed as reduction in microbial growth incubated for 48 hrs by broth microdilution method; format: functional
Bacteroides fragilis [30] = assay: Antibacterial activity against Bacteroides fragilis HM 718 assessed as reduction in microbial growth incubated for 48 hrs by broth microdilution method; format: functional
Bacteroides fragilis [31] = assay: Antibacterial activity against Bacteroides fragilis HM 719 assessed as reduction in microbial growth incubated for 48 hrs by broth microdilution method; format: functional
Bifidobacterium breve [32] = assay: Antibacterial activity against Bifidobacterium breve HM 412 assessed as reduction in microbial growth incubated for 48 hrs by broth microdilution method; format: functional
Bifidobacterium longum = assay: Antibacterial activity against Bifidobacterium longum HM 846 assessed as reduction in microbial growth incubated for 48 hrs by broth microdilution method; format: functional
[33] = system: Bifidobacterium angulatum; assay: Antibacterial activity against Bifidobacterium angulatum HM 1189 assessed as reduction in microbial growth incubated for 48 hrs by broth microdilution method; format: functional
Bifidobacterium breve [34] = assay: Antibacterial activity against Bifidobacterium breve HM1120 assessed as reduction in microbial growth incubated for 48 hrs by broth microdilution method; format: functional
Lactobacillus gasseri [35] = assay: Antibacterial activity against Lactobacillus gasseri HM 403 assessed as reduction in microbial growth incubated for 48 hrs by broth microdilution method; format: functional
Lactobacillus gasseri [36] = assay: Antibacterial activity against Lactobacillus gasseri HM 407 assessed as reduction in microbial growth incubated for 48 hrs by broth microdilution method; format: functional
Lactobacillus crispatus [37] = assay: Antibacterial activity against Lactobacillus crispatus HM 103 assessed as reduction in microbial growth incubated for 48 hrs by broth microdilution method; format: functional
Lactobacillus crispatus [38] = assay: Antibacterial activity against Lactobacillus crispatus HM 420 assessed as reduction in microbial growth incubated for 48 hrs by broth microdilution method; format: functional
[39] = target: UDP-N-acetylglucosamine 1-carboxyvinyltransferase (Escherichia coli K-12, UniProt P0A749); assay: Inhibition of Escherichia coli K12 His-tagged MurA expressed in Escherichia coli BL21 cells using UNAG as substrate pre incubated for 15 mins followed by substrate addition and measured after 15 mins by microplate reader analysis
[40] = Drug uptake in Escherichia coli harboring tolC deletion mutant at 10 uM incubated for 30 mins by LC analysis; format: ADME; conditions: 0.5 h
[41] = Drug uptake in Escherichia coli harboring tolC deletion mutant assessed per 1.6x10^9 cells at 10 uM incubated for 30 mins by LC analysis; format: ADME; conditions: 0.5 h

Sequence of UDP-N-acetylglucosamine 1-carboxyvinyltransferase (P0A749 whole entry): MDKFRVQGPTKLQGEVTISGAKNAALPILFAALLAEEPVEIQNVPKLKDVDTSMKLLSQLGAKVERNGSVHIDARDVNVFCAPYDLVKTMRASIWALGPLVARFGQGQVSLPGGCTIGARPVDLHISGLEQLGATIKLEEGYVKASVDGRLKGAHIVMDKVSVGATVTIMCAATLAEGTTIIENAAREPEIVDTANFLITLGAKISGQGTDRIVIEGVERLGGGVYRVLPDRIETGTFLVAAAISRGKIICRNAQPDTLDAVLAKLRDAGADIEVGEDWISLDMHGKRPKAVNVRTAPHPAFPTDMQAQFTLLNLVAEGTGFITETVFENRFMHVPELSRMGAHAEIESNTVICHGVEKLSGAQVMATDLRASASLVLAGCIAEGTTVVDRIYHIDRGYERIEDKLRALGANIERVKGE
Sequence of UDP-N-acetylglucosamine 1-carboxyvinyltransferase (Escherichia coli K-12) (P0A749 whole entry): as above

With `N#Cc1cnc(NC(=O)C2CN(c3ccccc3)N(c3ccccc3)C2=O)s1` (stereo not drawn) the MIC (Escherichia coli) was greater than 40 µM, the inhibition [1] was “inactive” and the MIC (Staphylococcus aureus) was greater than 40 µM.
In the case of `CCc1c(Cl)c(O)c(Cl)c(O)c1C(=O)O[C@H]1[C@H](O)[C@H](OC)[C@H](OC/C2=C\C=C\C[C@H](O)/C(C)=C/[C@H](CC)[C@@H](O[C@@H]3OC(C)(C)[C@@H](OC(=O)C(C)C)[C@H](O)[C@@H]3O)/C(C)=C/C(C)=C/C[C@@H]([C@@H](C)O)OC2=O)O[C@@H]1C` [FIDAXOMICIN], the MIC (Clostridioides difficile [2]) is reported as 0.03 µg/mL, the MIC (Clostridioides difficile [3]) is reported as 0.03 µg/mL and the MIC (Clostridioides difficile [4]) is reported as 0.06 µg/mL. The MIC (Clostridioides difficile [5]) was 0.06 µg/mL, the MIC (Clostridioides difficile [6]) was 0.06 µg/mL and the MIC (Clostridioides difficile [7]) was 0.06 µg/mL. It also gave an MIC (Clostridioides difficile [8]) of 0.06 µg/mL, an MIC (Clostridioides difficile [9]) of 0.06 µg/mL and an MIC (Clostridioides difficile [10]) of 0.125 µg/mL. It also gave an MIC (Clostridioides difficile [11]) of 0.06 µg/mL, an MIC (Clostridioides difficile [12]) of 0.06 µg/mL and an MIC (Clostridioides difficile [13]) of 0.06 µg/mL. The MIC (Clostridioides difficile [14]) was 0.06 µg/mL, the MIC (Clostridioides difficile [15]) was 0.125 µg/mL and the MIC (Clostridioides difficile [16]) was 0.125 µg/mL. It also gave an MIC (Clostridioides difficile [17]) of 0.03 µg/mL, an MIC (Clostridioides difficile [18]) of 0.125 µg/mL and an MIC (Clostridioides difficile [19]) of 0.06 µg/mL. For the same compound, the MIC (Clostridioides difficile [20]) was 0.03 µg/mL, the MIC (Clostridioides difficile [21]) was 0.015 µg/mL and the MBC (Clostridioides difficile [22]) was 0.06 µg/mL. It also gave an MBC (Clostridioides difficile [23]) of 0.06 µg/mL, an MBC (Clostridioides difficile [24]) of 0.125 µg/mL and an MBC (Clostridioides difficile [25]) of 0.06 µg/mL. The MBC (Clostridioides difficile [26]) was 0.25 µg/mL, the MBC (Clostridioides difficile [27]) was 0.06 µg/mL and the MIC (Bacteroides fragilis [28]) was greater than 64 µg/mL. The MIC (Bacteroides fragilis [29]) was greater than 64 µg/mL, the MIC (Bacteroides fragilis [30]) was greater than 64 µg/mL and the MIC (Bacteroides fragilis [31]) was greater than 64 µg/mL. The MIC (Bifidobacterium breve [32]) was no more than 0.06 µg/mL, the MIC (Bifidobacterium longum) was no more than 0.06 µg/mL and the MIC [33] was no more than 0.06 µg/mL. It also gave an MIC (Bifidobacterium breve [34]) of no more than 0.06 µg/mL, an MIC (Lactobacillus gasseri [35]) of 1 µg/mL and an MIC (Lactobacillus gasseri [36]) of 1 µg/mL. It also gave an MIC (Lactobacillus crispatus [37]) of 0.5 µg/mL and an MIC (Lactobacillus crispatus [38]) of 2 µg/mL.
`O=C(Nc1nc2ccccc2s1)C1CN(c2cccc(Cl)c2)N(c2cccc(Cl)c2)C1=O` (stereo not drawn) gave an MIC (Escherichia coli) greater than 40 µM, an inhibition [1] of 65.2% and an IC50 [39] of 18 µM. For the same compound, the Drug uptake [40] was 573 nM, the Drug uptake [41] was 19 µM and the MIC (Staphylococcus aureus) was greater than 40 µM.
Compound `O=C(Nc1ccccn1)C1CN(c2cccc(Cl)c2)N(c2cccc(Cl)c2)C1=O` (stereo not drawn) has an MIC (Escherichia coli) greater than 40 µM, an inhibition [1] of 30.5% and an MIC (Staphylococcus aureus) greater than 40 µM.
In the case of `O=C(Nc1ncc(Cl)s1)C1CN(c2cccc(Cl)c2)N(c2cccc(Cl)c2)C1=O` (stereo not drawn), the MIC (Escherichia coli) is reported as greater than 40 µM, the inhibition [1] is reported as 67.7% and the IC50 [39] is reported as 24 µM. For the same compound, the MIC (Staphylococcus aureus) was greater than 40 µM.
With `N#Cc1ccc(NC(=O)C2CN(c3cccc(Cl)c3)N(c3cccc(Cl)c3)C2=O)cn1` (stereo not drawn) the MIC (Escherichia coli) was greater than 40 µM, the inhibition [1] was 32.2% and the MIC (Staphylococcus aureus) was greater than 40 µM.
In the case of `CN1C(=O)C(C(=O)Nc2ncc(C#N)s2)CN1c1cccc(Cl)c1` (stereo not drawn), the MIC (Escherichia coli) is reported as greater than 40 µM, the inhibition [1] is reported as “inactive” and the MIC (Staphylococcus aureus) is reported as greater than 40 µM.
In the case of `CSc1nnc(NC(=O)C2CN(c3cccc(Cl)c3)N(c3cccc(Cl)c3)C2=O)s1` (stereo not drawn), the MIC (Escherichia coli) is reported as 38 µM, the inhibition [1] is reported as 63.4% and the IC50 [39] is reported as 26.9 µM. For the same compound, the MIC (Staphylococcus aureus) was greater than 40 µM.
In the case of `O=C1SCCC1NC(=O)C1CN(c2cccc(Cl)c2)N(c2cccc(Cl)c2)C1=O` (stereo not drawn), the MIC (Escherichia coli) is reported as 17 µM, the inhibition [1] is reported as 35% and the MIC (Staphylococcus aureus) is reported as 11 µM.
Compound `O=C(Nc1nccs1)C1CN(c2cccc(Cl)c2)N(c2cccc(Cl)c2)C1=O` (stereo not drawn) has an MIC (Escherichia coli) greater than 40 µM, an inhibition [1] of 17.8% and an MIC (Staphylococcus aureus) greater than 40 µM.
`O=C(Nc1cccnc1)C1CN(c2cccc(Cl)c2)N(c2cccc(Cl)c2)C1=O` (stereo not drawn) showed an MIC (Escherichia coli) of 38 µM, an inhibition [1] of 8.7% and an MIC (Staphylococcus aureus) greater than 40 µM.
`O=C(Nc1cccc(-c2cn[nH]c2)c1)C1CN(c2cccc(Cl)c2)N(c2cccc(Cl)c2)C1=O` (stereo not drawn) showed an MIC (Escherichia coli) greater than 40 µM, an inhibition [1] of 60.4% and an IC50 [39] of 31 µM. It also gave an MIC (Staphylococcus aureus) greater than 40 µM.
With `CN1C(=O)C(C(=O)NC2CCSC2=O)CN1c1cccc(Cl)c1` (stereo not drawn) the MIC (Escherichia coli) was greater than 40 µM, the inhibition [1] was “inactive” and the MIC (Staphylococcus aureus) was greater than 40 µM.
For `O=C(Nc1ccsc1)C1CN(c2cccc(Cl)c2)N(c2cccc(Cl)c2)C1=O` (stereo not drawn), the MIC (Escherichia coli) was greater than 40 µM, the inhibition [1] was 24.7% and the MIC (Staphylococcus aureus) was greater than 40 µM.

Reference: ChEMBL document CHEMBL5537113, “Discovery of 1,2-diaryl-3-oxopyrazolidin-4-carboxamides as a new class of MurA enzyme inhibitors and characterization of their antibacterial activity” (Eur J Med Chem, 2023)
